Tests used:
Murine Lewis Lung cells = settings: BDF1 mice; intravenously on Day 1
Procedure: Murine Lewis Lung cells are intravenously injected to BDF1 mice. Mean survival as well as body weight change and tumor free survivors on Day 72 are endpoints of the study. […] Treatment is administered once daily intraperitoneally on Days 1-4 and 7-11.

[1] = tested on: human colon cancer Co5776; assay: Antitumor activity in human colon xenograft Co5776; type: in vivo; settings: NCR female mice; intraperitoneally every third day five times; gemcitabine 120 mg/kg, gemcitabine-5′-elaidic acid ester 40 mg/kg
Procedure: (§1) Fragments of human colon cancers Co5776 and Co6044 are implanted subcutaneously in NCR female mice (7-8 mice/group). Gemcitabine (120 mg/kg) and gemcitabine-5′-elaidic acid ester (40 mg/kg) are administered intraperitoneally, every third day for five times.
NCr female mice implanted subcutaneously with human colon carcinoma fragments, Co5776, are treated intraperitoneally. Two different schedules of gemcitabine-5′-elaidic acid ester are administered, once weekly times 2 (Days 11 and 18), and every third day times 5 (Days 11, 14, 17, 20, and 23). Antitumor activity of gemcitabine-5′-elaidic acid ester is similar for 150 mg/kg once weekly, administered twice or 40 mg/kg every third day administered five times.

pancreatic cancer = assay: Survival of pancreatic cancer patients receiving gemcitabine monotherapy (FIG. 8); type: in vivo, human; settings: hypothetical plot
Procedure: Patients suffering from pancreatic cancer are administered gemcitabine monotherapy. Post mortem studies of the patients' tumors determine the levels of hENT1 expression in the tumors. FIG. 8 depicts a Kaplan-Meier plot of survival for patients receiving the gemcitabine monotherapy Patients with high hENT1 expression (dotted line) outperform those with areas of hENT1-low tumor.

[2] = tested on: Co-26 murine colon cancer cells; assay: Antitumor effect in Co-26 liver metastasis model; type: in vivo; settings: single dose
Procedure: Antitumor effect of single dose of gemcitabine-5′-elaidic acid ester or gemcitabine is tested in Balb/C female mice injected with Co-26 murine colon cancer cells in the spleen (a liver metastasis model). […] The activity of gemcitabine is similar.

CEM cells = assay: Intracellular dFdCTP level in CEM cells with or without dipyridamole (HPLC); type: cell-based, human; settings: 10 μM
Procedure: hENT1 can inhibited in vitro by various agents including dipyridamole, NBMPR, and NBI. In order to test whether gemcitabine-5′-elaidate entry into the cells is independent of a nucleoside transporter such as hENT1, dipyridamole is used to block hENT1. The intracellular level of dFdCTP is determined in CEM cells after 60 minutes exposure to either dFdC or gemcitabine-5′-elaidate, with or without the addition of dipyridamole (DP). The compounds are administered at 10 μM, and the triphosphates are determined using HPLC. Deamination is blocked using tetrahydrouridine.

[3] = tested on: CCRF-CEM human leukemia cell line; assay: Triphosphate accumulation and retention in CCRF-CEM cells; type: cell-based
Description: Drugs: Gemcitabine-5′-elaidate was provided by Clavis Pharma (Oslo, Norway), tetra hydro uridine (THU) was from Calbiochem (Merck, Darmstadt, Germany), dipyridamole and ara-C were from Sigma-Aldrich (St. Louis, Mo., USA) and dFdC was from Eli-Lilly (Indianapolis, Ind., USA). The radioactively labeled drugs were obtained from Moravek (Brea, Calif., USA); the drugs were labeled with tritium on the 5-C site of the base. A mix of radioactive and non-radioactive compounds was made for exposure of cells; dFdC and CP-4126 were used at a final concentration of 8.9 μM and a specific activity of 586 and 391 mCi/mmol, respectively.
Cell lines: For the experiments the CCRF-CEM human leukemia cell line and its dCK negative variant (CEM/dCK−) were used. The cell lines were cultured in RPMI medium (BioWhittaker, Verviers, Belgium) supplemented with 10% fetal calf serum (PAA laboratories, Pasching, Austria) and HEPES buffer (BioWhittaker). Of the nucleoside influx transporters, the CEM cell line only expresses the equilibrative nucleoside transporter (hENT) and not the concentrative nucleoside transporter (hCNT). Belt et al. Adv. Enzyme Regul., 1993, 33, 235-52. Dipyridamole (DP) was used to inhibit the influx of the drugs by hENT. In order to get a clean picture, THU was also added to inhibit deamination of ara-C and dFdC.
Triphosphate accumulation: Cells were treated with 1 and 10 μM of dFdC, while for the lipophilic analogs 10 and 100 μM was used. The cells were incubated for 60 minutes and retention of the triphosphates was investigated after 60 and 120 minutes incubation in drug-free medium. Dipyridamole was added to inhibit drug influx by the hENT transporter. After incubation the cell pellet was resuspended in ice-cold PBS and incubated for 20 minutes at 4° C. with 40% trichloroacetic acid. After centrifugation (10,000 g, 10 min, 4° C.) the supernatant was treated with a 2-fold excess of trioctylamine/1,1,2-trichlorotrifluorethane (1:4) and spun down (10,000 g, 1 min) and the aqueous phase was stored at −20° C. until analysis by HPLC on a Whatman Partisphere SAX column (GE healthcare, Chalfont St. Giles, UK) using gradient (dFdC-TP) elution as described earlier. Noordhuis et al., Leuk. Res., 1996, 20, 127-34; Ruiz van Haperen, et al., Biochem. Pharmacol., 1994, 48, 1327-39.

[4] = tested on: human colon cancer Co6044; assay: Antitumor activity in human colon xenograft Co6044 (intraperitoneal); type: in vivo; settings: NCR female mice; intraperitoneally every third day five times; gemcitabine 120 mg/kg, gemcitabine-5′-elaidic acid ester 40 mg/kg
Procedure: as §1

xenograft mouse models = assay: Correlation of hENT1 mRNA levels and sensitivity to gemcitabine in xenograft mouse models (FIG. 6); type: in vivo; settings: higher expression level of hENT1 mRNA
Description: FIG. 6 depicts the correlation of hENT1 mRNA levels and sensitivity to gemcitabine in xenograft mouse models. There are many nucleoside transporters and each may move nucleoside analog drugs across the membrane with unique kinetics. A cancer cell which has lower levels nucleoside transporters will be less efficient at transporting these drugs into the cells, reducing the efficacy of the drug. For example a tumor that has low levels of hENT1 is less sensitive to treatment with gemcitabine. FIG. 6 depicts the correlation of hENT1 mRNA levels and sensitivity to gemcitabine in xenograft mouse models. In some aspects low expression of hENT1 on pancreatic tumor cells linked to poor survival after gemcitabine therapy. In addition, hENT1 deficient tumor cells are resistant to pyrimidine nucleoside analogs in vitro. For example, hENT1 mRNA levels are co-related to the sensitivity to gemcitabine in xenograft mouse models.

SMILES | antitumor activity (Murine Lewis Lung cells) | toxicity (Murine Lewis Lung cells) | antitumor effect [1] | survival (Kaplan-Meier), high hENT1 vs hENT1-low tumor (pancreatic cancer) | activity compared with gemcitabine [2] | intracellular triphosphate (dFdCTP) level with DP (CEM cells; 60 minutes exposure, with dipyridamole, tetrahydrouridine present) | level of triphosphate over time in the absence of DP (CEM cells; after exposure, without dipyridamole) | retention of dFdC-TP concentration after washing away the drugs ([3]; 60 and 120 minutes in drug-free medium) | triphosphates formed after 60 minutes incubation ([3]; dFdC 1 and 10 μM, lipophilic analog 10 and 100 μM) | effect of dipyridamole on dFdC-TP accumulation ([3]; hENT inhibited by dipyridamole) | antitumor effect [4] | response in relation to hENT1 mRNA expression level (xenograft mouse models)
O=P1(N(CCCl)CCCl)NCCCO1 (stereo not drawn) [CTX, Cyclophosphamide] | highly active | non-toxic | – | – | – | – | – | – | – | – | – | –
Nc1ccn([C@@H]2O[C@H](CO)[C@@H](O)C2(F)F)c(=O)n1 [gemcitabine, 2′2′-difluorodeoxycytidine] | – | – | Significant antitumor effect | outperform | similar | below level of detection | decreases with time | decreased after washing away the drugs | more triphosphates were formed | abolishing accumulation of dFdC-TP | Significant antitumor effect | better response

From patent US20130005678A1, “Methods and Compositions for Treating or Ameliorating Cancer Using Gemcitabine-5'-Elaidate” (CLAVIS PHARMA ASA, priority 2010, published 2013)
